# Reference: ChEMBL document CHEMBL3046797, “Structure-activity relationships of trichothecene toxins in an Arabidopsis thaliana leaf assay” (J Agric Food Chem, 2007)
# Tests used:
# Assay type in all cases: organism-based
# Arabidopsis thaliana [1] = test: Phytotoxicity against Arabidopsis thaliana Col-4 leaves assessed as induction of chlorosis, shriveling or death of leaves […] by detached leaf assay; settings: in vivo
# [2] = Phytotoxicity against Arabidopsis thaliana Col-4 leaves assessed as induction of leaf death after 7 weeks post compound application by detached leaf assay; settings: Col-4, arabidopsis thaliana, read-out: LD50
# Arabidopsis thaliana [3] = test: Phytotoxicity against Arabidopsis thaliana Col-4 leaves assessed as induction of chlorosis at 100 uM […] by detached leaf assay; settings: in vivo, 1176 h
# Arabidopsis thaliana [4] = test: Phytotoxicity against Arabidopsis thaliana Col-4 leaves assessed as induction of leaf death at 50 uM […] by detached leaf assay; settings: in vivo
# Arabidopsis thaliana [5] = test: Phytotoxicity against Arabidopsis thaliana Col-4 leaves assessed as induction of leaf death at 10 uM […] by detached leaf assay; settings: in vivo
# Arabidopsis thaliana [6] = test: Phytotoxicity against Arabidopsis thaliana Col-4 leaves assessed as induction of chlorosis at 50 uM […] by detached leaf assay; settings: in vivo, 1176 h
# Arabidopsis thaliana [7] = test: Phytotoxicity against Arabidopsis thaliana Col-4 leaves assessed as induction of chlorosis at 10 uM […] by detached leaf assay; settings: in vivo
# Arabidopsis thaliana [8] = test: Phytotoxicity against Arabidopsis thaliana Col-4 leaves assessed as induction of leaf death at 100 uM […] by detached leaf assay; settings: in vivo
Compound,ED50 (Arabidopsis thaliana [1]),LC50 at 1176 h [2],other results
"CC(=O)OC[C@]12CCC(C)=C[C@H]1O[C@@H]1[C@H](OC(C)=O)C[C@@H](OC(C)=O)[C@@]2(C)[C@@]12CO2 [3,4,15-TRIACETOXYSCIRPENOL]",6.7 µM,,
"CC(=O)OC[C@]12[C@H](O)C(=O)C(C)=C[C@H]1O[C@@H]1[C@H](OC(C)=O)CC[C@@]2(C)[C@@]12CO2 [3,15-DIACETYLDEOXYNIVALENOL]",10 µM,28.2 µM,
"CC(=O)OC[C@]12[C@H](O)C(=O)C(C)=C[C@H]1O[C@@H]1[C@H](OC(C)=O)C[C@@H](O)[C@@]2(C)[C@@]12CO2 [3,15-DIACETYLNIVALENOL]",2.2 µM,4.3 µM,
"CC1=C[C@H]2O[C@@H]3[C@H](O)CC[C@](C)([C@@]2(CO)CC1)[C@@]31CO1 [3,15-DIDEACETYLCALONECTRIN]",90.1 µM,,
CC(=O)O[C@@H]1C[C@]2(C)[C@@]3(CO)[C@H](O)C(=O)C(C)=C[C@H]3O[C@H]1[C@@]21CO1 [3-ACETYLDEOXYNIVALENOL],3.4 µM,18.7 µM,
CC(=O)OC[C@]12CCC(C)=C[C@H]1O[C@@H]1[C@H](O)CC[C@@]2(C)[C@@]12CO2 [3-DEACETYLCALONECTRIN],7.6 µM,,
CC(=O)O[C@@H]1C[C@@H](O)[C@H]2O[C@@H]3C=C(C)C(=O)[C@@H](O)[C@]3(CO)[C@]1(C)[C@@]21CO1 [4-ACETYLNIVALENOL],16.1 µM,,
CC(=O)OC[C@]12[C@H](O)C(=O)C(C)=C[C@H]1O[C@@H]1[C@H](O)C[C@@]2(C)[C@]12CO2 [15-ACETYLDEOXYNIVALENOL],1.3 µM,4 µM,
CC(=O)O[C@@H]1CC[C@]2(C)[C@@]3(CO)CCC(C)=C[C@H]3O[C@H]1[C@]21CO1 [15-DEACETYLCALONECTRIN],> 100 µM,,Activity (Arabidopsis thaliana [3]): 50%
CC1=C[C@H]2O[C@@H]3[C@H](O)C[C@](C)([C@@]2(CO)[C@H](O)C1=O)[C@]31CO1 [DEOXYNIVALENOL],3.8 µM,23 µM,
CC(=O)O[C@@H]1CC[C@]2(C)[C@@]3(C)CCC(C)=C[C@H]3O[C@H]1[C@]21CO1 [ISOTRICHODERMIN],8.6 µM,16.1 µM,
CC1=C[C@H]2O[C@@H]3[C@H](O)CC[C@](C)([C@@]2(C)CC1)[C@@]31CO1 [ISOTRICHODERMOL],3.5 µM,,
CC1=CC(O)[C@@](C)([C@@]2(C)C[C@@H](O)[C@@H](O)C23CO3)CC1 (stereo partly drawn) [ISOTRICHOTRIOL],> 100 µM,,Activity (Arabidopsis thaliana [4]): 10%; Activity (Arabidopsis thaliana [5]): 10%; Activity (Arabidopsis thaliana [6]): 10%; Activity (Arabidopsis thaliana [7]): 10%; Activity (Arabidopsis thaliana [8]): 10%; Activity (Arabidopsis thaliana [3]): 10%
CC1=C[C@H]2O[C@@H]3[C@H](O)[C@@H](O)[C@](C)([C@@]2(CO)[C@H](O)C1=O)[C@]31CO1 [NIVALENOL],> 100 µM,> 100 µM,Activity (Arabidopsis thaliana [3]): 10%
CC1=C[C@H]2O[C@@H]3[C@H](O)C[C@@H](O)[C@](C)([C@@]2(CO)CC1)[C@@]31CO1 [SCIRPENTRIOL],53.6 µM,,
C=C1CCC[C@]1(C)[C@]1(C)CC=C(C)CC1 [TRICHODIENE],> 100 µM,,Activity (Arabidopsis thaliana [8]): 3%; Activity (Arabidopsis thaliana [3]): 10%
